Experimental data taken from ChEMBL document CHEMBL3351615, “Design, synthesis and evaluation of novel HDAC inhibitors as potential antitumor agents” (Bioorg Med Chem Lett, 2014).

How the values were obtained:
[1] = biological target: Histone deacetylase 1 (Homo sapiens, UniProt Q13547); assay: Inhibition of HDAC1 (unknown origin) using Boc-Lys(Ac)-AMC as substrate by fluorescence assay
[2] = cells; assay type: functional; conditions: Homo sapiens, HL-60, 72 h
Description: Growth inhibition of human HL60 cells after 72 hrs by CellTiter Glo assay

[3] = biological target: hERG (KCNH2) (Homo sapiens, UniProt Q12809); assay: Inhibition of human ERG at 10 uM
[4] = tested on: HCT-116; assay: Ratio of vorinostat IC50 to compound IC50 for human HCT116 cells after 72 hrs by CellTiter Glo assay; assay type: functional
[5] = Antitumor activity against human HCT116 cells xenografted in mouse assessed as tumor growth reduction at 75 mg/kg, po qd as intermittent dosing schedule with 3 days on plus 3 days off for 3 weeks relative to vehicle-treated control; assay type: functional; conditions: HCT-116, read-out: TGI
[6] = cells; assay type: functional; conditions: Homo sapiens, PC-3, 72 h
Description: Growth inhibition of human PC3 cells after 72 hrs by CellTiter Glo assay

[7] = Antitumor activity against human HCT116 cells xenografted in mouse assessed as tumor growth reduction at 50 mg/kg, po qd for 3 weeks relative to vehicle-treated control; assay type: functional; conditions: HCT-116, 504 h, read-out: TGI
[8] = cells; assay type: functional; conditions: Homo sapiens, HCT-116, 72 h
Description: Growth inhibition of human HCT116 cells after 72 hrs by CellTiter Glo assay

[9] = tested on: Mus musculus; assay: Toxicity in human HCT116 cells xenografted mouse assessed as body weight loss at 50 mg/kg, po qd for 3 weeks relative to vehicle-treated control; assay type: organism-based, HCT-116; design: dose 50 mg/kg, route oral; conditions: in vivo, 504 h
[10] = Antitumor activity against human HCT116 cells xenografted in mouse assessed as tumor growth reduction at 200 mg/kg, po qd measured after 10 days relative to vehicle-treated control; assay type: functional; conditions: HCT-116, 240 h, read-out: TGI
[11] = tested on: Mus musculus; assay: Toxicity in human HCT116 cells xenografted mouse at 200 mg/kg, po qd measured after 10 days relative to vehicle-treated control; assay type: organism-based, HCT-116; design: dose 200 mg/kg, route oral; conditions: in vivo, 240 h
[12] = tested on: Mus musculus; assay: Toxicity in human HCT116 cells xenografted mouse assessed as body weight loss at 50 mg/kg, po qd as intermittent dosing schedule with 3 days on plus 3 days off for 3 weeks relative to vehicle-treated control; assay type: organism-based, HCT-116; design: dose 50 mg/kg, route oral; conditions: in vivo

Histone deacetylase 1, sequence (Q13547 whole entry): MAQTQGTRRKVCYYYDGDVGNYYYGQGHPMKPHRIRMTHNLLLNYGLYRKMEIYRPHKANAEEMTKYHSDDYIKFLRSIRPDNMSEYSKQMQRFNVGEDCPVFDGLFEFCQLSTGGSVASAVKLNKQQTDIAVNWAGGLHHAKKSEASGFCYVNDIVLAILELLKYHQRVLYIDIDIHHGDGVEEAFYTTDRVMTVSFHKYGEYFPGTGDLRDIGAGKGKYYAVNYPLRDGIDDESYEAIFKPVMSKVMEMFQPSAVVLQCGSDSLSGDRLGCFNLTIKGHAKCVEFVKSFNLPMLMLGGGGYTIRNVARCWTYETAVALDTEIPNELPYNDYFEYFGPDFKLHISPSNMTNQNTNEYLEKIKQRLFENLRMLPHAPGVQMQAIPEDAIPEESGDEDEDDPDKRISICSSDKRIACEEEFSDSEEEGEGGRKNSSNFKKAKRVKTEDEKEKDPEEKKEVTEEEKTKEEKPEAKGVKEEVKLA
hERG (KCNH2), sequence (Q12809 whole entry): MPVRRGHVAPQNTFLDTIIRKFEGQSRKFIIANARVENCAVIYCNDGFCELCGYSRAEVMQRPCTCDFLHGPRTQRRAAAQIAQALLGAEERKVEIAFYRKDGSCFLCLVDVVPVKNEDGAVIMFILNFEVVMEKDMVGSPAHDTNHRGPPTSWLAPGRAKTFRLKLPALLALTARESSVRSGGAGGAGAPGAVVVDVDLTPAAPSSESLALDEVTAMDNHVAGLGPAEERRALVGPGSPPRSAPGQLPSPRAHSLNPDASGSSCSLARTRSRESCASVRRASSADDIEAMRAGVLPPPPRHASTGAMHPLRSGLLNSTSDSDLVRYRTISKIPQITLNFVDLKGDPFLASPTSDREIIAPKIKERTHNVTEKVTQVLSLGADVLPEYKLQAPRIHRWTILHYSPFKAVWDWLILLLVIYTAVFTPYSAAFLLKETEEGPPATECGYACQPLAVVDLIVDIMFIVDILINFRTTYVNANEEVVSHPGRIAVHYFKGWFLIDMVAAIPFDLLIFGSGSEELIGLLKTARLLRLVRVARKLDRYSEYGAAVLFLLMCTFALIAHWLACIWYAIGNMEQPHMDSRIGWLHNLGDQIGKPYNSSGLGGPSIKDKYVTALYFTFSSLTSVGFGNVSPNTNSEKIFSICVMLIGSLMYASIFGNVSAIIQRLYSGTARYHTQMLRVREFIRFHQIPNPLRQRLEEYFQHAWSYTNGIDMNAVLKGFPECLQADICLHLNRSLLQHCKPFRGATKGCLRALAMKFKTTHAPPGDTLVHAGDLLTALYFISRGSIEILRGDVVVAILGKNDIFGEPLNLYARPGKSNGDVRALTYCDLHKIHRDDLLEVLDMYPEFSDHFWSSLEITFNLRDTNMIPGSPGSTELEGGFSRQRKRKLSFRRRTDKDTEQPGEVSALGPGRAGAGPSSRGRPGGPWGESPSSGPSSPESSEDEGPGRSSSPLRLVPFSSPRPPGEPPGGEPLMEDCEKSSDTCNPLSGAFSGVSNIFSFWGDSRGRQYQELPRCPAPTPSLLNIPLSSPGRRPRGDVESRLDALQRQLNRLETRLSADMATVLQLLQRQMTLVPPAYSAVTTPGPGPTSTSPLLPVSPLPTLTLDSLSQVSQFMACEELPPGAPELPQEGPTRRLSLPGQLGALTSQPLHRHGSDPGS

Row | SMILES | IC50 [1] | GI50 [8] | further results
1 | CC(C)CN1CCN(c2ccc(C(=O)NO)cc2)C1=O | 0.25 µM |  | 
2 | CCN(CC)Cc1ccc2cc(CN3CCN(c4ccc(C(=O)NO)cc4)C3=O)ccc2c1 | 0.0027 µM | 0.11 µM | GI50 [2]: 0.086 µM; inhibition at 10 µM [3]: 27%; Ratio IC50 [4]: 6; inhibition in vivo at 75 mg/kg [5]: 54%; GI50 [6]: 0.1 µM; inhibition in vivo at 50 mg/kg [7]: 45%; Activity [9]: < 15%; inhibition in vivo at 200 mg/kg [10]: 50%; Activity [11]: Toxic; Activity [12]: < 15%
3 | O=C(NO)c1ccc(N2CCN(Cc3ccncc3)C2=O)cc1 | 0.041 µM |  | 
4 | CN(C)Cc1cccc(CN2CCN(c3ccc(C(=O)NO)cc3)C2=O)c1 | 0.023 µM |  | 
5 | COc1ccc(CN2CCN(c3ccc(C(=O)NO)cc3)C2=O)cc1 | 0.012 µM | 0.47 µM | 
6 | Cn1cc(CCN2CCN(c3ccc(C(=O)NO)cc3)C2=O)c2ccccc21 | 0.004 µM | 0.24 µM | GI50 [2]: 0.48 µM; GI50 [6]: 0.21 µM
7 | CN(C)Cc1ccc(CN2CCN(c3ccc(C(=O)NO)cc3)C2=O)cc1 | 0.025 µM |  | 
8 | O=C(NO)c1ccc(N2CCN(Cc3cccnc3)C2=O)cc1 | 0.042 µM |  | 
9 | O=C(NO)c1ccc(N2CCN(Cc3ccc(F)cc3)C2=O)cc1 | 0.021 µM |  | 
10 | O=C(NO)c1ccc(N2CCN(c3cccnc3)C2=O)cc1 | 0.182 µM |  | 
11 | O=C(NO)c1ccc(N2CCN(Cc3cccc4ncccc34)C2=O)cc1 | 0.0054 µM | 0.27 µM | GI50 [2]: 0.25 µM; GI50 [6]: 0.34 µM
12 | CN(C)c1cccc(CN2CCN(c3ccc(C(=O)NO)cc3)C2=O)c1 | 0.0095 µM | 0.33 µM | GI50 [2]: 0.44 µM; GI50 [6]: 0.43 µM
13 | O=C(NO)c1ccc(N2CCN(Cc3ccccc3)C2=O)cc1 | 0.017 µM | 0.85 µM | 
14 | O=C(NO)c1ccc(N2CCN(CCc3ccccc3)C2=O)cc1 | 0.013 µM | 0.65 µM | 
15 | O=C(NO)c1ccc(N2CCN(Cc3ccc(C(F)(F)F)cc3)C2=O)cc1 | 0.08 µM |  | 
16 | O=C(NO)c1ccc(N2CCN(Cc3ccc4ccccc4c3)C2=O)cc1 | 0.0054 µM | 0.21 µM | GI50 [2]: 0.36 µM; GI50 [6]: 0.38 µM
17 | O=C(NO)c1ccc(N2CCN(CCCN3CCOCC3)C2=O)cc1 | 0.125 µM |  | 
18 | O=C(NO)c1ccc(N2CCN(c3cnc4ccccc4c3)C2=O)cc1 | 0.152 µM |  | 
19 | O=C(NO)c1ccc(N2CCN(CCCN3CCCC3)C2=O)cc1 | 0.114 µM |  | 
20 | O=C(NO)c1ccc(N2CCN(Cc3cccc4ccccc34)C2=O)cc1 | 0.0095 µM |  | 
